The record followed here is patent US6479487B1, “6, 9-disubstituted 2-[trans-(4-aminocyclohexyl)amino] purines” (Aventis Pharmaceuticals Inc., priority 1998, dated 2002).

“And” between values parts separate entries of the source, which are not always exact repeats. Equal values may be shown once. Where a name gives a salt, the structure may show the parent alone. Read-outs that look alike come from different tables or passages of the source.

One assay has as its system DMS-114. The assay is described as follows: In vitro tumor cell proliferation, DMS-114. Type of assay: cell-based, human. To be noted: many values given with an undefined *, read-out: In vitro Tumor Cell Proliferation (IC50, μM) Lung DMS-114. The method, then: DMS-1 14: human small cell lung carcinoma;
(§1) The proliferation of tumor cells was measured using a sulforhodamine B assay as described in Skehan, P., et al., J. Natl. Cancer Inst. […] Tumor cells were harvested with trypsin-EDTA, cells that excluded trypan blue were counted, added to 96-well plates and incubated overnight at 37° C. Drug was added to the wells following dilution in culture medium. Three days later, the medium was removed and replenished with medium containing fresh drug and incubated an additional 4 days. The cells were then fixed with 0.1 ml 10% trichloroacetic acid for 60 min at 4° C. The plates were rinsed five times with tap water, air-dried and stained for 30 min with 0.4% sulforhodamine B in 1% acetic acid and air-dried.
(§2) Alternatively, the CyQUANT cell proliferation assay was used to quantitate cell proliferation.
(§3) Alternatively, the CyQUANT cell proliferation assay was used to quantify tumor cell proliferation. Tumor cells were harvested with trypsin-EDTA, cells that excluded trypan blue were counted, added to 96-well plates and incubated overnight at 37° C. Drug was added to the wells following dilution in culture medium. Three days later the medium was removed and the plates frozen at −80° C. for at least 30 minutes.

The subject of a further assay is HT-29. The assay is described as follows: In vitro tumor cell proliferation, HT-29. Type of assay: cell-based, human. To be noted: many values given with an undefined *, read-out: In vitro Tumor Cell Proliferation (IC50, μM) Colon HT-29. The method, then:
as §1, §2, §3
HT-29 is a human colon adenocarcinoma, moderately well-differentiated grade II (HTB 38);

For another assay, the target named is T1, cdk2/cyclin E (Homo sapiens, UniProt P24941).
T1 construct: made in house; host or cells: insect cells (baculovirus co-infection)
The assay is described as follows: Cyclin-Dependent Kinase 2 Assay (cdk2/cyclin E, GST-Rb substrate). Format: biochemical. The settings on record: recombinant cdk2/cyclin E, 10 μM ATP, 30 min at 30° C., several values in a cell = separate determinations, read-out: CDK-2 Inhibition IC50. How it is done:
Substrate: GST-Rb as described above for cdk4/cyclin D1
Assay conditions for cdk2/cyclin E were identical to those for cdk4/cyclin D1 including the substrate. The concentration of recombinant cdk2/cyclin E in the assay was 0.1 μg per 100 μl assay. Incubation was for 30 min at 30° C.

A further assay has as its system DU145. The assay is described as follows: In vitro tumor cell proliferation, DU145. Format: cell-based, human. The settings on record: many values given with an undefined *, read-out: In vitro Tumor Cell Proliferation (IC50, μM) Prostate DU145. The method, then: as §1, §2, §3
A further assay deals with A549. Nature of the assay: In vitro tumor cell proliferation, A549. To be noted: many values given with an undefined *, read-out: In vitro Tumor Cell Proliferation (IC50, μM) Lung A549. Type of assay: cell-based, human. The method, then: as §1, §2, §3
In another assay the test system is MDA-MB-231. The assay is described as follows: In vitro tumor cell proliferation, MDA-MB-231. Format: cell-based, human. To be noted: sulforhodamine B or CyQUANT assay, many values given with an undefined *, read-out: In vitro Tumor Cell Proliferation (IC50, μM) Breast MDA-MB-231. The method, then: as §1, §2, §3
MDA-MB-23 1 is a human breast adenocarcinoma, hormone-independent (HTB 26);

For the next assay, the system named is PC-3. Nature of the assay: In vitro tumor cell proliferation, PC-3. Type of assay: cell-based, human. The settings on record: many values given with an undefined *, read-out: In vitro Tumor Cell Proliferation (IC50, μM) Prostate PC-3. How it is done: as §1, §2, §3
The subject of the next assay is MDA-MB-435. The assay is described as follows: In vitro tumor cell proliferation, MDA-MB-435. The settings on record: values given with an undefined *, read-out: In vitro Tumor Cell Proliferation (IC50, μM) Breast MDA-MB-435. Format: cell-based. How it is done:
as §1, §2, §3

The next assay relates to Colo-205. The assay is described as follows: In vitro tumor cell proliferation, Colo-205. Type of assay: cell-based. The settings on record: values given with an undefined *, read-out: In vitro Tumor Cell Proliferation (IC50, μM) Colon Colo-205. The method, then:
as §1, §2, §3

The next assay concerns the target T2, cdk4/cyclin D1 (Homo sapiens, UniProt P11802).
T2 construct: made in house; host or cells: Sf9 insect cells (Bac-to-Bac baculovirus, pFastBac)
Nature of the assay: Cyclin-dependent Kinase 4 Assay (cdk4/cyclin D1, GST-Rb substrate). To be noted: cdk4/cyclin D1 insect cell lysate, 10 μM ATP, 30 min at 37° C., several values = separate determinations, read-out: CDK4 Inhibition IC50. Format: biochemical. The method, then:
The IC50 values for cdk4 inhibition were by the following method:
The transformed bacteria were grown overnight to saturation, then diluted in YT broth and incubated at 37° C. for 2 h. The protein was induced by incubation with 0.1 mM isopropylthioglycoside for 3 h. Following sedimentation by centrifugation, the cells were lysed by sonication in STE buffer ([…] NaCl, 10 mM Tris, pH 8.0, 1 mM EDTA) containing 10% sarkosyl. Particulate matter was removed by centrifugation and the lysate was incubated with glutathione-Sepharose at 4° C. The beads were washed with kinase buffer and then quantitation of Coomassie blue-stained proteins separated by SDS-PAGE was performed using a protein standard of known concentration.
The cDNA for human cyclin D1 was cloned by RT PCR using […] from MCF-7 cells. […] Bacmid DNA was used to transfect Sf9 insect cells to produce recombinant virus. Following plaque purification of the virus, the viral preparations were amplified until high titer stocks were acheived.
Lysates were prepared by lysis of Sf9 cells coinfected with cdk4 and cyclin D1 in 50 mM HEPES, pH 7.5, 10 mM MgCl2, 1 mM DTT, 0.1 mM phenylmethylsulfonyl fluoride, 5 μg/ml aprotinin, and 5 μg/ml leupeptin using a PARR bomb under 500 p.s.i nitrogen pressure for 5 min at 4° C. Insoluble material was sedimented at 10,000×g for 20 min at 4° C. Glycerol was added to the supernatant to 10% and stored at −80° C. in aliquots.
Pre-wet Millipore Multiscreen 96-well filter plates (0.65 μm Durapore filters) with 200 μl kinase buffer (50 mM HEPES, pH 7.5, 10 mM MgCl2, 1 mM EGTA). GST-Rb (0.5 μg) bound to glutathione-Sepharose beads is added in 50 μl per well and the solution removed by application of vacuum. […] Add 0.1 μg cdk4/cyclin D1 (insect cell lysate) to initiate assay. Incubate 30 min at 37° C. Terminate reaction by filtration on Millipore Vacuum Manifold. Wash four times with TNEN (20 mM Tris, pH 8.0, 100 mM Na Cl, 1 mM EDTA, 0.5% nonidet P-40). After drying the plates at room temperature, the filter plates were placed in adapter plates (Packard) and 40 μl of Microscint-O® (Packard) was added to each well. Top Seal A film was used to cover the plates before counting in a Top Count Scintillation Counter.

The mark [1] stands for this setting: Homo sapiens, MDA-MB-231, MDA-MB-231.

T2 sequence (P11802 whole entry): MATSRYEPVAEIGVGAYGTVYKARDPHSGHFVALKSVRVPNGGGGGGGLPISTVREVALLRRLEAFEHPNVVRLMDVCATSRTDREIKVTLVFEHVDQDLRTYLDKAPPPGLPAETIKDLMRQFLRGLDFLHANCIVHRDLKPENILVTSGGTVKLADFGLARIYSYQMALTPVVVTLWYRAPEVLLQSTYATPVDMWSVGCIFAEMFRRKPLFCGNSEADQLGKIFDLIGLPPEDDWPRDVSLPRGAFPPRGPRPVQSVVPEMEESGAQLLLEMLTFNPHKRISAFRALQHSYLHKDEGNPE
T2 sequence (P24385 whole entry partner): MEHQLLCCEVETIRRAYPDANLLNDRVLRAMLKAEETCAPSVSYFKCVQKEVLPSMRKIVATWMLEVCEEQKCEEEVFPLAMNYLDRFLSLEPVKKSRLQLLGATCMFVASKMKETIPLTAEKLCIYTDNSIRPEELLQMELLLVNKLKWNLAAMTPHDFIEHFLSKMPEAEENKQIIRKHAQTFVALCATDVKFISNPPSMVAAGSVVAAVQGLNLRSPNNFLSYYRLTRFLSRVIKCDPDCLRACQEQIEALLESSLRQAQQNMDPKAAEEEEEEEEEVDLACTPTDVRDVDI

Take `N[C@H]1CC[C@H](Nc2nc(NNc3c(Cl)cccc3Cl)c3ncn(C4CCCC4)c3n2)CC1` [Example 20, 2-[Trans-(4-aminocyclohexyl)amino]-6-[2,6-dichlorophenylhydrazino]-9-cyclopentylpurine dihydrochloride]: the IC50 in the assay with DMS-114 (Homo sapiens, DMS-114, DMS-114) worked out at 7.5 µM; in the assay with HT-29 (Homo sapiens, HT-29, HT-29) it was 7.6 µM; at cdk2/cyclin E, 0.497 µM; in the assay with DU145 (Homo sapiens, DU-145, DU145), 6.5 µM; in the assay on A549 (A549, dihydrochloride), 4.8 µM; with A549 (Homo sapiens, A549, A549) it was 5.6 µM. For the same compound, the IC50 in the assay with MDA-MB-231 (setting [1]) came to 4.8 µM; in the assay on PC-3 (Homo sapiens, PC-3, PC-3), 7.9 µM; in the assay on MDA-MB-435 (Homo sapiens, MDA-MB-435, MDA-MB-435) it was 11 µM.

As to `COc1ccccc1CN1CCC(Nc2nc(N[C@H]3CC[C@H](N)CC3)nc3c2ncn3C2CCCC2)CC1` [Example 147-q, 2-[Trans-(4-aminocyclohexyl)amino]-6-[4-1-(2-methoxybenzyl)]piperidinylamino-9-cyclopentylpurine trihydrochloride], the IC50 with DMS-114 (DMS-114, trihydrochloride) is 0.4 µM and 0.21 µM; with Colo-205 (Colo-205, trihydrochloride), 0.17 µM and 0.19 µM; on cdk4/cyclin D1 (trihydrochloride), 0.69 µM and 1.3 µM; with HT-29 (HT-29, trihydrochloride), 0.32 µM and 0.38 µM; in the assay with DU145 (DU145, trihydrochloride) it was 0.29 µM and 0.32 µM; with A549 (A549, trihydrochloride) it was 0.18 µM and 0.19 µM. In addition, the IC50 with MDA-MB-231 (MDA-MB-231, trihydrochloride) was 0.19 µM and 0.25 µM; with PC-3 (PC-3, trihydrochloride), 0.33 µM and 0.4 µM; in the assay on MDA-MB-435 (MDA-MB-435, trihydrochloride), 0.36 µM and 0.33 µM.

“2-[Trans-(4-aminocyclohexyl)amino]-6-[4-[1-(2,5-difluorobenzyl)]piperidinylamino-9-cyclopentylpurine trihydrochloride [Example 147-f]”: the IC50 is 0.67 µM and 0.36 µM in the assay with DMS-114 (DMS-114, trihydrochloride); 0.31 µM and 0.25 µM with Colo-205 (Colo-205, trihydrochloride); 1.1 µM and 2.1 µM at cdk4/cyclin D1 (trihydrochloride); 0.4 µM and 0.34 µM in the assay with HT-29 (HT-29, trihydrochloride); 0.31 µM and 0.29 µM with DU145 (DU145, trihydrochloride); 0.3 µM in the assay on A549 (A549, trihydrochloride). Moreover, the IC50 in the assay with MDA-MB-231 (MDA-MB-231, trihydrochloride) is 0.41 µM and 0.38 µM; in the assay with PC-3 (PC-3, trihydrochloride), 0.36 µM and 0.45 µM; in the assay with MDA-MB-435 (MDA-MB-435, trihydrochloride) it was 0.5 µM and 0.49 µM.

Consider `Cc1cccc(CN2CCC(Nc3nc(N[C@H]4CC[C@H](N)CC4)nc4c3ncn4C3CCCC3)CC2)c1` [Example 147-i, 2-[Trans-(4-aminocyclohexyl)amino]-6-[4-[1-(3-methylbenzyl)]piperidinylamino]-9-cyclopentylpurine trihydrochloride], for which the IC50 with DMS-114 (DMS-114, trihydrochloride) is 0.39 µM and 0.26 µM; in the assay on Colo-205 (Colo-205, trihydrochloride), 0.24 µM and 0.27 µM; with HT-29 (HT-29, trihydrochloride), 0.33 µM; in the assay with DU145 (DU145, trihydrochloride), 0.23 µM; with A549 (A549, trihydrochloride) it was 0.17 µM and 0.18 µM; in the assay on MDA-MB-231 (MDA-MB-231, trihydrochloride) it was 0.3 µM and 0.34 µM. Besides, the IC50 in the assay on PC-3 (PC-3, trihydrochloride) was 0.23 µM and 0.41 µM; with MDA-MB-435 (MDA-MB-435, trihydrochloride) it was 0.3 µM and 0.45 µM.

For `COc1cccc(CN2CCC(Nc3nc(N[C@H]4CC[C@H](N)CC4)nc4c3ncn4C3CCCC3)CC2)c1` [Example 41, 2-[Trans-(4-aminocyclohexyl)amino]-6-[4-(1-(3-methoxybenzyl))piperidinylamino]-9-cyclopentylpurine], the IC50 with DMS-114 (DMS-114) was 0.38 µM and 0.29 µM; in the assay on Colo-205 (Colo-205), 0.25 µM and 0.21 µM; at cdk4/cyclin D1, 0.75 µM and 1.4 µM; in the assay on HT-29 (HT-29) it was 0.32 µM; with DU145 (DU145), 0.29 µM and 0.23 µM; in the assay on A549 (A549) it was 0.19 µM. Moreover, the IC50 was 0.29 µM and 0.32 µM in the assay with MDA-MB-231 (MDA-MB-231); 0.27 µM and 0.42 µM in the assay on PC-3 (PC-3); 0.35 µM and 0.36 µM in the assay on MDA-MB-435 (MDA-MB-435).

With `COc1ccc(CN2CCC(Nc3nc(N[C@H]4CC[C@H](N)CC4)nc4c3ncn4C3CCCC3)CC2)cc1` [Example 39, 2-[Trans-(4-aminocyclohexyl)amino]-6-[4-(1-(4-methoxybenzyl))piperidinylamino]-9-cyclopentylpurine], the IC50 with DMS-114 (DMS-114) was 0.32 µM and 0.22 µM; in the assay with Colo-205 (Colo-205), 0.28 µM and 0.17 µM; in the assay with HT-29 (HT-29) it was 0.32 µM and 0.22 µM; with DU145 (DU145), 0.28 µM and 0.27 µM; in the assay on A549 (A549), 0.17 µM; in the assay with MDA-MB-231 (MDA-MB-231), 0.18 µM. The IC50 with PC-3 (PC-3) is 0.28 µM and 0.36 µM; with MDA-MB-435 (MDA-MB-435) it was 0.23 µM and 0.35 µM.

Take `COc1cc(CNc2nc(NC3CCC(N)CC3)nc3c2ncn3C2CCCC2)cc(OC)c1OC` (stereo not drawn) [Example 147-ae]: the IC50 with DMS-114 (Homo sapiens, DMS-114, DMS-114) came to 8.7 µM; with Colo-205 (Colo-205), 8.6 µM; in the assay on Colo-205 (Homo sapiens, COLO 205, Colo-205) it was 11 µM; in the assay with HT-29 (Homo sapiens, HT-29, HT-29), 10 µM; at cdk2/cyclin E it was 0.14 µM; in the assay on DU145 (DU145) it was 6.7 µM. Further, the IC50 stood at 12 µM with DU145 (Homo sapiens, DU-145, DU145); 11 µM in the assay on A549 (Homo sapiens, A549, A549); 6.5 µM in the assay on MDA-MB-231 (setting [1]); 6.6 µM in the assay on MDA-MB-231 (MDA-MB-231); 11 µM in the assay with MDA-MB-435 (MDA-MB-435).
